Test results reported in US10806121B2, “Animal litter containing a pheromone composition” (Sergeant's Pet Care Products, LLC, priority 2014, dated 2020).

How the values were obtained:
cats [1] = assay: Study 1: cat litter preference, pheromone-treated litter versus control litter; assay type: in vivo
Procedure: In Study 1, four different treatments were tested: Androstenone (ANDRO); cat urinary pheromone, 3-mercapto-3-methyl-1-butanol (CAT); rabbit pheromone, 2-methylbut-2-enal (RP); and both the cat urinary pheromone and the rabbit pheromone (CAT+RP). 40 individual cats were used in this study to assess their preference to or aversion from a control litter versus a litter under one of the four treatments. Each treatment was tested with 10 cats. Litter was divided into 3 lb aliquots, and each aliquot was either used as a control or was mixed with a pheromone (or a pheromone combination) to be tested at a level of 10 μg/3-lb (or 7.3 μg/kg).
On Day 0, each cat was placed into an assigned chamber randomly placed with two litter boxes, one control and one treated. Each of the two litter boxes was weighed and the weight was recorded. The camera in the chamber was properly aligned to give a full view of the chamber and started taping on Day 0. On Day 1, 24 hours after the start of taping on Day 0, each of the two litter boxes in the chamber was weighed and the weight was recorded. On Day 2, 48 hours after the start of taping on Day 0, each of the two litter boxes in the chamber was again weighed. Litter can be disposed of after weighing on Day 2, and the camera was then turned off. The weights of the litter boxes over the 48 hours were used to determine whether the litter was used or not, and at which preference level.
The data were expressed as both a percentage preference (% of the cats using the treated litter in each treatment group) and by the weight of the litter (the litter gets heavier as it is soiled). It was expected that if the added pheromone had no effect on litter preference, 50% of the cats would use the treated litter and 50% would use the control litter. […] Further, the weight difference between a control litter or litter under treatment was used to show the relative strength of the effect of a particular treatment on cat's litter use behavior. During the study, some cats (N=3; 2 in CAT+RP and 1 in RP) spilled their litter and their data were unreliable and were not included.

cats [2] = assay: Study 3: 24-hour behavior of the most aggressive intact male cat pairs, CON litter versus RP litter; assay type: in vivo
Procedure: During the studies, cat behavior was captured on video for the duration of the 24- or 48-hour period depending on the specific study. Red lights were used at night to allow for continuous observation. A scan sampling method was used to record cat behaviors each 5 minutes. The recorded videos were subsequently reviewed and analyzed in each 5-minute scan sample, with tape playing 30 frames per second. At each 5-minute time point, each cat was categorized as anxious or relaxed. Aggression or litter box usage occurred between 5-minute periods were also noted. Because each scan sample is of 5-minute period, a total of 24 observations for each individual behavior are possible for each 2 hours. The instances of an individual behavior (An; n=1, 2, 3, . . . 24) in each 5-minute period were totaled for instances in each 2 hours (Bm=ΣAn, n=1, 2, 3, . . . 24; m=1, 2, 3, . . . 12) over 24 hours. The behavioral score for each 2-hour period is ΣAn/24 (n=1, 2, 3, . . . , 24). A behavioral score for a 24-hour period is ΣBm/12 (m=1, 2, 3, . . . 12). Among all behavior assessed, aggression, in-litter-box and anxiety were scored as yes or no during each 5 minutes (An=1 or 0; n=1, 2, 3, . . . 24). In addition, anxiety was measured as a percentage of the total time that the cat was experiencing anxiety. As such the anxiety related behavioral score for a 24-hour period is 0.347×ΣBm (%) (Bm=ΣAn(%), n=1, 2, 3, . . . 24; m=1, 2, 3, . . . 12), which reflects the percentage of time over 24 hours that the cats are experiencing anxiety. Moreover, when ranking cat pairs based on their level of aggression, the sum of the aggression scores of the individual cats in the pair was used to rank the cat pairs. Behavior data (behavioral scores) were further analyzed by Least Squares Analysis of variance using SAS (2011, SAS Inst., Inc., Cary, N.C.) software and the p-diff general linear model procedures to assess treatment differences within each time period. This statistical model included effects of treatment (TRT), cat-pair within treatment (TRT*CAT), time (HR), treatment by time (TRT*HR) and residual error (SE; used to test remaining effects). The most aggressive eight pairs of intact male cats from study 2 (Table, the pairs ranked 1 and 2-9) were selected for this 24-hour study, which was designed to assess if and how 2-methylbut-2-enal containing cat litter affects the multiple cats placed in one single room. Between studies 2 and 3, cat pairs had been separated for at least 12 weeks. Control (CON) litter and rabbit pheromone (RP) litter were similarly prepared as illustrated in Study 2. Each pair of cats was placed in a kennel containing one food dish, one water dish, and one litter box. Food and water was available ad libitum during the study. […] Side fences were chain linked. A total of 4 kennels were placed in one single room, and two rooms were utilized for eight pairs of cats. Cat behaviors were captured on video for the duration of the 24-hour period. Red lights were used at night to allow for continuous observation. The study schedule was as follows: • (1) 0 hour—Add 3 lb. aliquot of CON litter to a clean litter box and weigh the litter box; place a CON litter box in each of the 4 kennels in Room One. Before placing a designated cat pair in each of the kennels, weigh the cats. Start the video taping. • (2) 0 hour—Add 3 lb. aliquot of RP litter to a clean litter box and weigh; place RP litter boxes in 4 kennels in a separate Room Two; weigh cats; place designated pairs in kennels; and start the video taping. • (3) 24-hour—Remove and weigh all litter boxes; weigh all cats. Video records were obtained and reviewed for summary and analyses. At the 24-hour point of time, it was noted if any soiling had occurred outside of the litter box. Any social behavioral problems of the cats were also manually recorded, despite that video records provided a much more precise record of cat behaviors. Cat behavior of each pair was captured on video for the duration of the 24-hour period. […]

[3] = treated versus control litter weight after 2 days

C/C=C(\C)C=O [RP, 2-methylbut-2-enal]
increase of litter attraction (cats [1]; 7 out of 9 cats chose treated litter): more than 3.5 times
percentage preference (% of the cats using the treated litter) (cats [1]; litter treated at 10 μg/3-lb (7.3 μg/kg), choice against control litter over 48 hours, 50% = no effect): 78%
Litter Type Use, g, TRT (weights of litter after 2 days) (cats [1]; treated litter box, 10 μg/3-lb, SE = 0.023): 0.76 g
Relative Difference, % (cats [1]; [3]): 138%
Significantly Different (cats [1]; [3]): Yes
effect on cats' litter preference (cats [1]; treated versus control litter, 48 hours): highly preferred over the control litter
aggression away from litter box, % of the observations (cats [2]; 0-2 hour period, CON litter 25%, P<0.01): 5-6%
aggression near litter box, % of the observations (cats [2]; 0-2 hour period, CON litter more than 40%, P<0.01): 2-3%
aggression away from litter box, % of the observations (cats [2]; 2-4 hour period, CON litter 23-24%, P<0.01): 4%
lying/sitting - touching versus CON litter (cats [2]; 6-8 hour period, P=0.07): tendency to sit or lie in contact
anxiety versus CON litter (cats [2]; 8-10 hour period, P=0.06): tendency to be more anxious
litter box use versus CON litter (cats [2]; 8-10 hour period, P=0.10): tended to use the litter box more often
anxiety versus CON litter (cats [2]; 10-12 hour period, P<0.01): significantly more anxious
neutral social interaction versus CON litter (cats [2]; 10-12 hour period, P<0.01): significantly more neutral (non-aggressive) social interactions
litter box use versus CON litter (cats [2]; 12-14 hour period, P<0.01): Cats experiencing CON litter used the litter box significantly more
anxiety versus CON litter (cats [2]; 14-16 hour period, P=0.01): significantly more anxious
anxiety versus CON litter (cats [2]; 16-18 hour period, P=0.03): significantly more anxious
lying/sitting - touching versus CON litter (cats [2]; 16-18 hour period, P=0.05): tended to sit or lie in contact less
anxiety versus CON litter (cats [2]; 18-20 hour period, P=0.03): significantly more anxious
litter box use versus CON litter (cats [2]; 18-20 hour period, P=0.03): Cats experiencing CON litter used the litter box significantly more
lying/sitting - touching versus CON litter (cats [2]; 20-22 hour period, P=0.01): significantly higher
lying/sitting - touching versus CON litter (cats [2]; 22-24 hr period, P=0.04): tended to sit or lie in contact less
duration of aggression control (cats [2]; RP in the litter around 0.0004% to 0.0006% (w/w)): 6 to 8 h
Behavior score: Head in food/H2O dish (cats [2]; RP litter (3% (w/w) beads with 0.02% (w/w) 2-methylbut-2-enal), 24 hours, 4 cat pairs, CON 0.85, TRT P-Value 0.16): 0.57
Behavior score: Grooming other (cats [2]; RP litter, 24 hours, 4 cat pairs, CON 0.03, TRT P-Value 0.36): 0.00
Behavior score: Neutral social interaction (cats [2]; RP litter, 24 hours, 4 cat pairs, CON 0.10, TRT P-Value 0.82): 0.14
Behavior score: In litter box - using (cats [2]; RP litter, 24 hours, 4 cat pairs, CON 0.31, TRT P-Value 0.23): 0.20
Behavior score: Grooming self (cats [2]; RP litter, 24 hours, 4 cat pairs, CON 0.56, TRT P-Value 0.90): 0.52
Behavior score: Lying/sitting - touching (cats [2]; RP litter, 24 hours, 4 cat pairs, CON 0.73, TRT P-Value 0.92): 0.64
Behavior score: Play (cats [2]; RP litter, 24 hours, 4 cat pairs, CON 0.84, TRT P-Value 0.89): 0.92
Behavior score: Sleeping (cats [2]; RP litter, 24 hours, 4 cat pairs, CON 0.95, TRT P-Value 0.59): 0.63
Behavior score: In litter box - not using (cats [2]; RP litter, 24 hours, 4 cat pairs, CON 1.63, TRT P-Value 0.74): 2.34
Behavior score: Aggression (cats [2]; RP litter, 24 hours, 4 cat pairs, CON 3.55, TRT P-Value 0.37): 2.01
Behavior score: Locomotion (cats [2]; RP litter, 24 hours, 4 cat pairs, CON 5.50, TRT P-Value 0.52): 4.34
Behavior score: Lying/sitting - not touching (cats [2]; RP litter, 24 hours, 4 cat pairs, CON 14.98, TRT P-Value 0.79): 15.53
Behavior score: Anxiety (%) (cats [2]; RP litter, 24 hours, 4 cat pairs, CON 17.00, TRT P-Value 0.56): 25.00%
weight added to litter box (cats [2]; RP litter, CON cats 0.15 kg, SE=0.02 kg, change not significant, litter spilled): 0.07 kg/day
overall RP treatment effect on behaviors over the full 24 hours (cats [2]; RP versus CON litter, all behaviors of Table 10): None of the behaviors evaluated over the full 24 hours were significantly changed
anxiety versus CON litter (cats [2]; first 2 hour period, P=0.04): significantly less anxious
aggression patterns versus CON litter (cats [2]; first 6 hours after cats were placed together, P<0.01): significantly lower
